Assay results published in PMC7044277 (Nature Communications, 2020).
Values joined by “and” are separate entries in the source; they are usually repeats but may differ in a detail not shown here. Identical values can stand only once.

Assays:
Assay type in all cases: cell-based
Parameters in all cases: GPCRome screening signal at PTGIR / GPCRome screening signal at PTH1R / GPCRome screening signal at PTH2R / GPCRome screening signal at QRFP / GPCRome screening signal at RXFP2 / GPCRome screening signal at RXFP3 / GPCRome screening signal at RXFP4 / GPCRome screening signal at S1PR2 / GPCRome screening signal at S1PR3 / GPCRome screening signal at S1PR4 / GPCRome screening signal at S1PR5 / GPCRome screening signal at SCTR / GPCRome screening signal at SSTR2 / GPCRome screening signal at SSSTR / GPCRome screening signal at SSTR4 / GPCRome screening signal at SSTR5 / GPCRome screening signal at SUCNR1 / GPCRome screening signal at TA1 / GPCRome screening signal at TAAR2 / GPCRome screening signal at TAAR5 / GPCRome screening signal at TAAR6 / GPCRome screening signal at TAAR8 / GPCRome screening signal at TACR1 / GPCRome screening signal at TACR2 / GPCRome screening signal at TACR3 / GPCRome screening signal at TBXA2R / GPCRome screening signal at TSHR / GPCRome screening signal at UTS2R / GPCRome screening signal at VIPR2 / GPCRome screening signal at GPR68 no V2 Tail / GPCRome screening signal at GRM2 / GPCRome screening signal at GRM3: reference not given here
320 non-olfactory GPCRs [1] = molecular target: T1, 320 non-olfactory GPCRs (Homo sapiens, UniProt O95136); details: receptor S1PR2
T1 construct: expressed in transfected cells; host or cells: HTLA cells
T1 sequence (O95136 whole entry): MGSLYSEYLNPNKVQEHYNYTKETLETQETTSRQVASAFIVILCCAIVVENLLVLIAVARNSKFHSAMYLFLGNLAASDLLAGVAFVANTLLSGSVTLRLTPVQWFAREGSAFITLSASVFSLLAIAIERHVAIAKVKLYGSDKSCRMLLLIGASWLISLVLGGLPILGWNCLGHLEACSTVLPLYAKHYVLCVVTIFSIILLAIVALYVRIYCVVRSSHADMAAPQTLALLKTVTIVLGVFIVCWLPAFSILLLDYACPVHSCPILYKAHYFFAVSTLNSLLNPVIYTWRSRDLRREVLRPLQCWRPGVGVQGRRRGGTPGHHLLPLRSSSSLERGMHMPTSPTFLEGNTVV

320 non-olfactory GPCRs [2] = molecular target: 320 non-olfactory GPCRs (Homo sapiens, UniProt O95977); details: receptor S1PR4
320 non-olfactory GPCRs (Homo sapiens, UniProt O95977), sequence (O95977 whole entry): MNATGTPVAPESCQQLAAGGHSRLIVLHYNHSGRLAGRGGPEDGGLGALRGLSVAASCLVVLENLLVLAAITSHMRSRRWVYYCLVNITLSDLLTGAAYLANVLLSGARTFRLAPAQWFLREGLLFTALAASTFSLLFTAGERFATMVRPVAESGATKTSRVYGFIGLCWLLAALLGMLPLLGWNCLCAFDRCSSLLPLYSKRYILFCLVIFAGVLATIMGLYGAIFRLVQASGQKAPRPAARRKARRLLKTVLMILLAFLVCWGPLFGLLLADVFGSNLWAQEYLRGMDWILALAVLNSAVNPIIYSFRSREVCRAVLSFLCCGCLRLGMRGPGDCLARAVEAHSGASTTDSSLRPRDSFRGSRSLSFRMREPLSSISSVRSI

320 non-olfactory GPCRs [3] = molecular target: 320 non-olfactory GPCRs (Homo sapiens, UniProt Q03431); details: receptor PTH1R
320 non-olfactory GPCRs (Homo sapiens, UniProt Q03431), sequence (Q03431 27-593): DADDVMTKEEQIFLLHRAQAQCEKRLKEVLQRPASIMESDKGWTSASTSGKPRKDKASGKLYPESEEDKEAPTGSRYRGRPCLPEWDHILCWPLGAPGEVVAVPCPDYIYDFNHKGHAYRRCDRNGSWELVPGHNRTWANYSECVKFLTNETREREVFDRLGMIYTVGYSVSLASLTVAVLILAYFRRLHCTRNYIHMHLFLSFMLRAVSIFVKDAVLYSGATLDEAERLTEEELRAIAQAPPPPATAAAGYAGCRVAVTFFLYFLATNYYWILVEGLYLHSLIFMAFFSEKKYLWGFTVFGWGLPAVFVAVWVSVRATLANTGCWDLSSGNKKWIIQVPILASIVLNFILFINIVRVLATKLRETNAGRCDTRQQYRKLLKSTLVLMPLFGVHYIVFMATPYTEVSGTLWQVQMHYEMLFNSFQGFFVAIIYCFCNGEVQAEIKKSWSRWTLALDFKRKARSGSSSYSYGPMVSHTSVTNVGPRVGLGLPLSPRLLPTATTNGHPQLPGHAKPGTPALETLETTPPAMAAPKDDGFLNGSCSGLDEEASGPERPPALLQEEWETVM

320 non-olfactory GPCRs [4] = molecular target: T2, 320 non-olfactory GPCRs (Homo sapiens, UniProt Q14832); details: receptor GRM3
T2 construct: expressed in transfected cells; host or cells: HTLA cells
T2 sequence (Q14832 23-879): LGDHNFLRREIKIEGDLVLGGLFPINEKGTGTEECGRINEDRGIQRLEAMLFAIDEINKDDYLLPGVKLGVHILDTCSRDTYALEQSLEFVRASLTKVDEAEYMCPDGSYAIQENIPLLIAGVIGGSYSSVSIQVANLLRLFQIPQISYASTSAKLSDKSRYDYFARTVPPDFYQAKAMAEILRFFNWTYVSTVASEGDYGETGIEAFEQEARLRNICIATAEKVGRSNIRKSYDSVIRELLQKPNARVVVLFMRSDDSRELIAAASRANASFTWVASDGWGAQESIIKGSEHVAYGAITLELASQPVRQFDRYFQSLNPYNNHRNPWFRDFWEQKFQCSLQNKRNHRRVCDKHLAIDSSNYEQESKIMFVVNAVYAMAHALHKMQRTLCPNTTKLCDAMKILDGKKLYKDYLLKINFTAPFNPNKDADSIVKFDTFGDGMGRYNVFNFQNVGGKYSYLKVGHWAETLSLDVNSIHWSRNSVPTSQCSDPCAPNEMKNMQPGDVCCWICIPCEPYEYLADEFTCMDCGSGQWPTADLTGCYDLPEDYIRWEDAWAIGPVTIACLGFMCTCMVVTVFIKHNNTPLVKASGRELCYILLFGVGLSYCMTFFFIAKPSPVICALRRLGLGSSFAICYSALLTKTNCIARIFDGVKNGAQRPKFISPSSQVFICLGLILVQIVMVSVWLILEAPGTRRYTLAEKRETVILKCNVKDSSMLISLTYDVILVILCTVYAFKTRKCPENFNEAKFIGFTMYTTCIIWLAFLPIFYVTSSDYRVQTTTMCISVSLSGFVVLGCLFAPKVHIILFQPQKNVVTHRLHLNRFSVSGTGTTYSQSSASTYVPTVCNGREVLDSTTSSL

[5] = Fig_5f, single replicate values
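Throughout, for GPCRome agonism screen response: fold over basal response of each receptor without drug.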

Row | SMILES | GPCRome screening signal at S1PR2 (320 non-olfactory GPCRs [1]; [5]) | GPCRome screening signal at S1PR4 (320 non-olfactory GPCRs [2]; [5]) | GPCRome screening signal at PTH1R (320 non-olfactory GPCRs [3]; [5]) | GPCRome screening signal at GRM3 (320 non-olfactory GPCRs [4]; [5]) | GPCRome agonism screen response (320 non-olfactory GPCRs [1]; replicate values, Fig_4g) | GPCRome agonism screen response (320 non-olfactory GPCRs [2]; replicate values, Fig_4g) | GPCRome agonism screen response (320 non-olfactory GPCRs [3]; replicate values, Fig_4g) | GPCRome agonism screen response (320 non-olfactory GPCRs [4]; replicate values, Fig_4g)
1 | CCOc1ccccc1CCC(C)NCC1(O)CCCCC1.Cl (racemic) [Fig_5f] | 2.447 and 1.17 and 1.142 and 1.029 | 1.441 and 1.208 and 0.7517 and 1.693 | 2.489 and 1.041 and 1.352 and 1.077 | 0.4086 and 1.387 and 0.6216 and 1.325 |  |  |  | 
2 | CCOc1cccc2cc(C(C)NCC3(O)CCCCC3)oc12 (centres unmarked) [O4LE6] |  |  |  |  | 2.111 and 0.9213 and 3.313 and 1.2731 | 0.2093 and 0.09901 and 4.053 and 0.7997 | 0.6677 and 0.9983 and 1.484 and 1.06 | 0.5635 and 0.5272 and 0.9256 and 1.931
